US5484786A, “Pyran-4-ylmethyl substituted arylalkylaryl-, arylalkenylylaryl-, and arylalkynylarylurea inhibitors of 5-lipoxygenase” (Abbott Laboratories, priority 1993, dated 1996)

Biological target: T1, 5-Lipoxygenase (Homo sapiens, UniProt P09917)
T1 construct: Human heparinized whole blood was preincubated with test compounds; from tissue; host or cells: human heparinized whole blood
T1 sequence (P09917 1-674): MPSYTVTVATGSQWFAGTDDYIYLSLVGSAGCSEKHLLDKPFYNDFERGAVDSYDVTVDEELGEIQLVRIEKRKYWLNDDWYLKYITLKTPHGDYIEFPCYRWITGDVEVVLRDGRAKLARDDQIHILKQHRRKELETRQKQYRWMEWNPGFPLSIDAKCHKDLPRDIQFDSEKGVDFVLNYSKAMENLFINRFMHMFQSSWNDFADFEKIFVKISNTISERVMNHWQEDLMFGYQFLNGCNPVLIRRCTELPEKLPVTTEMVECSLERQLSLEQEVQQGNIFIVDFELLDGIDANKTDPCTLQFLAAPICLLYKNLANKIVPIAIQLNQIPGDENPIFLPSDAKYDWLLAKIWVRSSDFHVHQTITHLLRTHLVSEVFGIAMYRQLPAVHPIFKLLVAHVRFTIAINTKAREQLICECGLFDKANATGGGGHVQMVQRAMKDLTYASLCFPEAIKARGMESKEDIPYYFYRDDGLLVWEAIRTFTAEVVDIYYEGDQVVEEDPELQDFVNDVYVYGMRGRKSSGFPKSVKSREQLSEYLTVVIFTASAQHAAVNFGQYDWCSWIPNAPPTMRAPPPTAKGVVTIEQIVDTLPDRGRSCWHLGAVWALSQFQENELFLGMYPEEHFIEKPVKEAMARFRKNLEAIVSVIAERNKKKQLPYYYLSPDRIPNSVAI
Experiment: Inhibition of calcium ionophore A23187-induced LTB4 biosynthesis in human whole blood
Type: cell-based
Conditions: human heparinized whole blood, 15 min preincubation 37° C., A23187 8.3 μM, 30 min
Protocol: Inhibition of leukotriene biosynthesis was evaluated in an assay, involving calcium ionophore-induced LTB4 biosynthesis expressed human whole blood. Human heparinized whole blood was preincubated with test compounds or vehicle for 15 min 37° C. followed by calcium ionophore A23187 challenge (final concentration of 8.3 μM) and the reaction terminated after 30 min by adding two volumes of methanol containing prostaglandin B2 as an internal recovery standard. The methanol extract was analyzed for LTB4 using a commercially available radioimmunoassay.

CON=C(c1cc(F)cc(OCc2ccc(N(C)C(=O)N(C)C)cc2)c1)C1CCOCC1 [Example 5, E- and Z-O-Methyl-4-[(3-(4-N',N'-dimethylaminocarbonyl-N-methylamino)benzyloxy)-5-fluoro-phenyl)oximinomethyl]tetrahydropyran]
In vitro inhibitory potency against 5-lipoxygenase from stimulated LTB4 formation in human whole blood (percent inhibition) (@ 0.78 μM): 100%

CON=C(c1cc(F)cc(OCc2cccc(N(C)C(=O)N(C)C)c2)c1)C1CCOCC1 [Example 43, E- and Z-O-Methyl-4-[(3-(3-(N',N'-dimethylaminocarbonyl-N-methylamino)-benzyloxy)-5-fluoro-phenyl)oximinomethyl]tetrahydropyran]
In vitro inhibitory potency against 5-lipoxygenase from stimulated LTB4 formation in human whole blood (percent inhibition) (@ 3.13 μM): 12%

CON=C(c1cc(F)cc(OCc2ccc(N(C)C(C)=O)cc2)c1)C1CCOCC1 [Example 1, E- and Z-O-Methyl-4-[(3-(4-(N-acetyl-N-methylamino)benzyloxy)-5-fluoro-phenyl)oximinomethyl]tetrahydropyran]
In vitro inhibitory potency against 5-lipoxygenase from stimulated LTB4 formation in human whole blood (percent inhibition) (@ 1.56 μM): 100%
